Measurements as given in ChEMBL document CHEMBL1133871, “4-Aminopiperidine ureas as potent selective agonists of the human beta(3)-adrenergic receptor” (Bioorg Med Chem Lett, 2001).
Calls of active or inactive are those of the source. The calls are words filed in the database; no cut-off is given here.

Tests used:
[1] = biological target: Beta-1 adrenergic receptor (Homo sapiens, UniProt P08588); assay: In vitro agonistic activity assessed by measurement of cAMP accumulation level in CHO cells expressing human beta1-AR receptor; type: functional, cell-based
Sequence of Beta-1 adrenergic receptor (P08588 whole entry): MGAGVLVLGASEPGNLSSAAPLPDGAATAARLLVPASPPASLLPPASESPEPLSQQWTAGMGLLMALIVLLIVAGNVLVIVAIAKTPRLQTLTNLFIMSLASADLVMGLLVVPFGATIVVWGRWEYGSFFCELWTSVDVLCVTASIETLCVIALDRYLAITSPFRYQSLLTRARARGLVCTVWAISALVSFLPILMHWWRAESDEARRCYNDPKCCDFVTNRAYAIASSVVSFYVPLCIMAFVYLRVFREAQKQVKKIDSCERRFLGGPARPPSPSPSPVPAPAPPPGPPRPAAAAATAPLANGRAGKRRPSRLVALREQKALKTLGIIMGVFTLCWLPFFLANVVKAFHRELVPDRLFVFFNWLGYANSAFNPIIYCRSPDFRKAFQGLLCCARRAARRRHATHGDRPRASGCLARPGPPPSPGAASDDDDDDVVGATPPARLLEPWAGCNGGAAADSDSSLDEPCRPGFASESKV

[2] = biological target: T1, Beta-3 adrenergic receptor (Homo sapiens, UniProt P13945); assay: In vitro agonistic activity assessed by measurement of cAMP accumulation level in CHO cells expressing human beta3-AR receptor; In active; type: functional, cell-based
Target sequence in this assay (P13945 whole entry): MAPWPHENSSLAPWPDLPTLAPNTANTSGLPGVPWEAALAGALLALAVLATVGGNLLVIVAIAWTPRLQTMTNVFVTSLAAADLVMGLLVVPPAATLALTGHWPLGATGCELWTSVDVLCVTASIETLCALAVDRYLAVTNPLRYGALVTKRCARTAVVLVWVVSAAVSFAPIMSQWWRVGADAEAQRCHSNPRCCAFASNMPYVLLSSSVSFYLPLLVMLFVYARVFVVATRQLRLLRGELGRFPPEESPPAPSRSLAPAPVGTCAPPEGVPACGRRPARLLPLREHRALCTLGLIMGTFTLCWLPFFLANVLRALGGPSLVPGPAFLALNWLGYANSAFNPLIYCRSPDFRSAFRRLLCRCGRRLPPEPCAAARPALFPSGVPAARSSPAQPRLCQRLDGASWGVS

[3] = biological target: T1, Beta-3 adrenergic receptor; assay: In vitro intrinsic activity is given as percentage of maximal stimulation relative to isoproterenol; In active; type: functional
Target sequence in this assay (P13945 whole entry): as above

[4] = biological target: T2, Adrenergic receptor beta (Homo sapiens, UniProt P08588+P07550+P13945); assay: In vitro intrinsic activity is given as percentage of maximal stimulation relative to isoproterenol; Not active; type: functional
[5] = biological target: T2, Adrenergic receptor beta; assay: In vitro agonistic activity against cAMP accumulation level in CHO cells expressing human beta-AR receptor; type: functional, cell-based
[6] = biological target: T1, Beta-3 adrenergic receptor; assay: […] of cAMP accumulation level in CHO cells expressing human beta3-AR receptor at 10 uM concentration; type: functional, cell-based
Target sequence in this assay (P13945 whole entry, looked up): as the sequence (P13945 whole entry) above

[7] = biological target: T1, Beta-3 adrenergic receptor; assay: In vitro agonistic activity assessed by measurement of cAMP accumulation level in CHO cells expressing human beta3-AR receptor; type: functional, cell-based
Target sequence in this assay (P13945 whole entry): as above

| SMILES | EC50 [1] [nM] | further results |
| --- | --- | --- |
| CCCCCCCCNC(=O)N1CCC(Nc2ccc(CCNC[C@H](O)COc3cccc4[nH]c(O)nc34)cc2)CC1 |  | EC50 [2]: Not Active; EC50 [3]: Not Active |
| O=C(NCc1ccc(F)cc1F)N1CCC(Nc2ccc(CCNC[C@H](O)COc3ccc(O)cc3)cc2)CC1 | 460 | Intrinsic activity [4]: inactive |
| O=C(NCCCC1CCCC1)N1CCC(Nc2ccc(CCNC[C@H](O)COc3ccc(O)cc3)cc2)CC1 | 187 |  |
| CCCCCCCCNC(=O)N1CCC(Nc2ccc(CCNC[C@H](O)COc3ccc(F)cc3)cc2)CC1 |  | inhibition [6]: 37% |
| CCN(CC)C(=O)N1CCC(Nc2ccc(CCNC[C@H](O)COc3ccc(O)cc3)cc2)CC1 | 164 |  |
| O=C(NC1CCCCC1)N1CCC(Nc2ccc(CCNC[C@H](O)COc3ccc(O)cc3)cc2)CC1 | 85 |  |
| O=C(NCc1ccc(F)cc1)N1CCC(Nc2ccc(CCNC[C@H](O)COc3ccc(O)cc3)cc2)CC1 | 109 | EC50 [7]: 41 nM |
| NC(=O)N1CCC(Nc2ccc(CCNC[C@H](O)COc3ccc(O)cc3)cc2)CC1 | 511 |  |
| CCCCCCCCNC(=O)N1CCC(Nc2ccc(CCNC[C@H](O)c3ccc(O)c(C(N)=O)c3)cc2)CC1 |  | Intrinsic activity [6]: 42% |
| CNC(=O)N1CCC(Nc2ccc(CCNC[C@H](O)COc3ccc(O)cc3)cc2)CC1 | 350 |  |
| O=C(NCc1ccc(Cl)cc1Cl)N1CCC(Nc2ccc(CCNC[C@H](O)COc3ccc(O)cc3)cc2)CC1 | 254 | Intrinsic activity [4]: inactive |

More lines, main results first:

| EC50 [1] [nM] | SMILES | further results |
| --- | --- | --- |
| 88 | CCCCCCCCNC(=O)N1CCC(Nc2ccc(CCNC[C@H](O)COc3ccc(O)c4c3CCC(=O)N4)cc2)CC1 |  |
| 522 | O=C(NCc1cc(F)ccc1F)N1CCC(Nc2ccc(CCNC[C@H](O)COc3ccc(O)cc3)cc2)CC1 | Intrinsic activity [4]: inactive |
| 2640 | CS(=O)(=O)Nc1cc([C@@H](O)CNCCc2ccc(NC3CCN(C(=O)NCc4cc(F)ccc4F)CC3)cc2)ccc1O | EC50 [5]: 10 nM |
| 610 | CCCCCCCCNC(=O)N1CCC(Nc2ccc(CCNC[C@H](O)COc3ccc(O)cc3)cc2)CC1 | EC50 [7]: 8 nM |
| 943 | CC(C)NC(=O)N1CCC(Nc2ccc(CCNC[C@H](O)COc3ccc(O)cc3)cc2)CC1 |  |
| 423 | CS(=O)(=O)Nc1cc(OC[C@@H](O)CNCCc2ccc(NC3CCN(C(=O)NCc4cc(F)ccc4F)CC3)cc2)ccc1O |  |
| 750 | O=C(NCc1c(F)cccc1F)N1CCC(Nc2ccc(CCNC[C@H](O)COc3ccc(O)cc3)cc2)CC1 | Intrinsic activity [4]: inactive |
| 260 | O=C(NCc1ccccc1F)N1CCC(Nc2ccc(CCNC[C@H](O)COc3ccc(O)cc3)cc2)CC1 | Intrinsic activity [4]: inactive |
